The text below walks through data of article PMC8766756, “Insights on Cancer Cell Inhibition, Subcellular Activities, and Kinase Profile of Phenylacetamides Pending 1H-Imidazol-5-One Variants” (Frontiers in Pharmacology, 2022).

The test system of one assay is HL60 leukemia cell line. Briefly: CellTiter-Blue cell viability assay. The note with it: Homo sapiens, HL-60, 48 h, read-out: IC50 ± SEM HL60. It is filed as cell-based. How it is done:
(§1) The compounds were screened for their anticancer activities against a variety of cancer cell lines. The cytotoxic effect of the compounds was evaluated using the sulforhodamine B (SRB) cytotoxicity assay for breast cancer line (MCF7) and prostate cancer cell line (PC3) ([Vichai and Kirtikara, 2006]; [Rana et al., 2021]) and 3-(4,5-dimethylthiazol-2-yl)-2,5-diphenyl-2H-tetrazolium bromide (MTT) assay for the colon cancer (HCT116) cell lines ([El-Huneidi et al., 2020]). The CellTiter-Blue® cell viability assay was performed on the various leukemia cell lines, HL60, NB4, and KG1a cells ([Akter et al., 2019]). The IC50 values are illustrated in Table 1.
(§2) HL60, NB4, and KG1a were purchased from CLS Cell Line Service GmbH (Eppelheim, Germany). All cell lines were cultured in RPMI-1640 medium supplemented with 10% FBS (Thermo Fisher Scientific) and ciprofloxacin (10 μg/ml; Cipla Limited; Mumbai, India), at 37°C with 5% CO2 in a humidified incubator.
(§3) The CellTiter-Blue® Cell Viability assay was acquired from Promega Corporation (Madison, WI, USA). The cell viability assay was performed as follows: the cells (10^4/well) were incubated with a concentration gradient of the test compounds ranging from 0.01 to 100 μM, in 96-well plates for 48 h at 37°C. Subsequently, 20 µL of the CellTiter-Blue® Cell Viability reagent was added to each well and incubated for an additional 2 h for the development of fluorescence. The fluorescence emission was measured at 590 nm using the SpectraMax® i3x Multi-Mode Microplate Reader (Molecular Devices, LLC; San Jose, CA, USA.) and plotted against the drug concentrations to determine the IC50 of the test compounds.

For another assay, the system named is KG1a leukemia cell line. Briefly: CellTiter-Blue cell viability assay. It is filed as cell-based. The settings on record: Homo sapiens, KG-1a, 48 h. How it is done:
as §1, §2, §3

A further assay relates to NB4 leukemia cell line. Briefly: CellTiter-Blue cell viability assay. It is filed as cell-based. The settings on record: Homo sapiens, NB-4, 48 h. The protocol:
as §1, §2, §3

In the next assay the target is T1, Yes (P07947) (Homo sapiens, UniProt P07947).
T1 construct: purchased PamGene (PamChip PTK array, Upstream Kinase Analysis)
T1 sequence (P07947 whole entry): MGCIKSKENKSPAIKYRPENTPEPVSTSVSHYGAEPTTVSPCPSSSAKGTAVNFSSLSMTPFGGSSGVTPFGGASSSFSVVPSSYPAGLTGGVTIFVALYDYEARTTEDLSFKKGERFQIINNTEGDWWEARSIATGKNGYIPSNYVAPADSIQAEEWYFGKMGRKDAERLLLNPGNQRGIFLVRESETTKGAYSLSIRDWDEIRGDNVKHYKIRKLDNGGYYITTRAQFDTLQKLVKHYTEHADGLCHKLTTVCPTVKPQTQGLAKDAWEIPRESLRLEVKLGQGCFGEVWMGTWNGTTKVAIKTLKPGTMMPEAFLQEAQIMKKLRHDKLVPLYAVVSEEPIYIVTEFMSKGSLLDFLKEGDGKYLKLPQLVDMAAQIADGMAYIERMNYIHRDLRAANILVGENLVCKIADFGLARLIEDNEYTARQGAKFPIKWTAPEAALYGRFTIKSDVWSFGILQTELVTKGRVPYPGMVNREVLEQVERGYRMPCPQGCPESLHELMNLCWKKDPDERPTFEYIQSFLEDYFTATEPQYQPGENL
Briefly: PamChip tyrosine kinase microarray. The note with it: 0.1 µM, HL60 lysate. It is filed as biochemical. The protocol: (§4) The reproducible high potency of KIM-161 on leukemia cell lines was initially speculated to encompass Src tyrosine kinase inhibition. Even so, we also suspected that KIM-161 might be affecting other tyrosine kinases because the HL60 cells are not among the most Src-dependent highly proliferative cells ([Collins, 1987]). Therefore, a profiling of the kinase activities was performed after treatment with KIM-161 using PamChip® tyrosine kinase microarray. This analysis is based on incubation of cell lysate with 3D microarray that projects peptides specific for 143 tyrosine kinases. If a kinase is modified in the cells, it will be detected by phosphorylating its specific peptide in the microarray.
(§5) This test measured the activities of an array of tyrosine kinases of treated HL60 cells compared to the control (untreated cells) after incubation with KIM-161 for 48 h at concentrations of 0.001, 0.01, 0.1, 1.0, 10, and 50 µM. The log fold change (LFC) heat map was initially used to identify significant peptides affected at each concentration (Figure 5).
(§6) An Upstream Kinase Tool was used to generate a putative list of kinases responsible for phosphorylating the phosphosites on the PamChip®. It is an interpretation and is highly dependent on the contents of the underlying phosphorylation databases. Kinase score (Table 2) was used for ranking kinases based on their significance and specificity in terms of the set of peptides used for the corresponding kinase. Kinase statistics indicates the overall change of the peptide set that represents a certain kinase. Kinase statistics value of <0 indicates lower kinase activity in the lysate spiked with the compound and vice versa. Table 2 lists the 20 most changed kinases within treated HL60 cell lysates by 0.1 μM KIM-161.
(§7) Every compound had spiked into a leukemic (AML) cell line HL60 lysate at different concentrations (0.001, 0.01, 0.1, 1, 10, and 50 μM). In addition, DMSO had also spiked at a low concentration (2% v/v) to the HL60 lysate as the control. The samples were profiled on PamGene's tyrosine kinase (PTK) arrays in technical replicates, covering a total of 196 phosphorylation sites. The frozen leukemic HL60 cultured cell pellet was sent to PamGene. At PamGene, the cells were lysed in the presence of the lysis buffer and proteases inhibitor cocktail. The protein concentration was measured using the standard Bradford assay as per the PamGene SOPs. These lysates were further used for generating the PTK activity profiles. For spiking, KIM-161 was received in powder form and dissolved in DMSO at the PamGene facility, followed by storing it at −20°C in small aliquots. PamGene used its in-house bioinformatics toolbox in combination with other methods to generate the hypotheses of signaling pathways.

A further assay has as its target T2, TRKC (Q16288) (Homo sapiens, UniProt Q16288).
T2 construct: purchased PamGene (PamChip PTK array, Upstream Kinase Analysis)
Briefly: PamChip tyrosine kinase microarray. It is filed as biochemical. The note with it: 0.1 µM, HL60 lysate. The protocol:
as §4, §5, §6, §7

T2 sequence (Q16288 32-839): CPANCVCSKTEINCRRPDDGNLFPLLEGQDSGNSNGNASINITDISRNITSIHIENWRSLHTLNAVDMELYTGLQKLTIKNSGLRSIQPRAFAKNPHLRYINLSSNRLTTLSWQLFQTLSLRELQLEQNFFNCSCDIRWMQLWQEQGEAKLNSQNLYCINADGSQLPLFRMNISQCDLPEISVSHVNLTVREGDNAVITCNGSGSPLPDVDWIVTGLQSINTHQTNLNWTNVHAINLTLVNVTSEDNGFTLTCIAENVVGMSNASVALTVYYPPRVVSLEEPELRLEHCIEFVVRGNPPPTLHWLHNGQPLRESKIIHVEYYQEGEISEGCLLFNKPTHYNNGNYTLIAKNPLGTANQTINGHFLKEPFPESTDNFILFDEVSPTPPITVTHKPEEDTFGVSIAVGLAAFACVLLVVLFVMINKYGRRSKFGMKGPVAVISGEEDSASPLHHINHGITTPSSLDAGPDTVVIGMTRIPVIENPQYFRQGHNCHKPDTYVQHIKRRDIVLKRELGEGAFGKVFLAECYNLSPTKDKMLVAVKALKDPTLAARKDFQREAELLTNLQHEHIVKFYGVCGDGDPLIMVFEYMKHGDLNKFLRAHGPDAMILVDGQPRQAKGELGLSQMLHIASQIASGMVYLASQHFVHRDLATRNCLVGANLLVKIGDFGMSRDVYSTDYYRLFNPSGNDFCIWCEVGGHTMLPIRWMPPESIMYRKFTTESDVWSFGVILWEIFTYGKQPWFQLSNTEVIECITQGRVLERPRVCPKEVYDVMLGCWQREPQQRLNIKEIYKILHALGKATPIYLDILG

Take `COc1ccc(/C=C2\N=C(C)N(c3ccc(CC(=O)NCc4ccccc4)cc3)C2=O)cc1` [Compound 4c, (Z)-N-Benzyl-2-(4-(4-(4-methoxybenzylidene)-2-methyl-5-oxo-4,5-dihydro-1H-imidazol-1-yl)phenyl)acetamide]: in the assay on HL60 leukemia cell line, the concentration for half-maximal inhibition (IC50) came out at 362 ± 20 nM. The compound further came in with a 50% inhibitory concentration (IC50) in the assay with KG1a leukemia cell line of 893 nM. This compound also gave a half-maximal inhibitory concentration (IC50) in the assay on NB4 leukemia cell line of 275 nM. Further, on Yes (P07947), the “Mean Final score (Kinase score)” value is listed as 1.8671, the “Mean Kinase Statistic” value is on record as -0.9897, the “Mean Significance Score” value is on record as 1.824 and the “Mean Specificity Score” value worked out at 0.04992. For the same compound, on TRKC (Q16288), the “Mean Final score (Kinase score)” value was 2.207, the “Mean Kinase Statistic” value was -1.079, the “Mean Significance Score” value was 2.048 and the “Mean Specificity Score” value was found to be 0.1464.
